Measured values reported in patent publication US10208019B2, “GLP-1 receptor agonists and uses thereof” (Pfizer Inc., priority 2016, dated 2019).
Where two headings read alike, the source gives them in different places.

Target: human GLP-1R (Homo sapiens, UniProt P43220, G168S)
Experiment: CHO GLP-1R Clone H6—Assay 1: HTRF cAMP cell-based functional agonist assay (high GLP-1R density)
Settings: for EC50: CHO GLP-1R Clone H6, cAMP HTRF, geometric mean; for Emax: read-out: Assay 1 Emax (%), CHO GLP-1R Clone H6; for Emax / Assay 1 Emax (%): relative to saturating concentration of full agonist GLP-1 (1 μM), arithmetic mean; for Assay 1 Emax (%): CHO GLP-1R Clone H6

Chain of human GLP-1R (P43220 24-463 G168S limits assumed): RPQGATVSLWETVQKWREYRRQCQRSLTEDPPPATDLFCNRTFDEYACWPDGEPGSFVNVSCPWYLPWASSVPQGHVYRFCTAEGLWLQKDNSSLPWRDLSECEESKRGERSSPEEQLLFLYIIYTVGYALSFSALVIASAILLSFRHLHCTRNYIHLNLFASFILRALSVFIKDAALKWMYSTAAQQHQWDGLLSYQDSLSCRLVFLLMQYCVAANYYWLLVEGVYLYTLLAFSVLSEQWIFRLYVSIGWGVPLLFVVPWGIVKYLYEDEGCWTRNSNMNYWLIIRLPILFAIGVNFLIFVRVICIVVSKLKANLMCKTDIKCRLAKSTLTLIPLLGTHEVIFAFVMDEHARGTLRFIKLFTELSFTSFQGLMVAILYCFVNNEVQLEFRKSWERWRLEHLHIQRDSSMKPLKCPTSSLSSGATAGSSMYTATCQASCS

Structure (SMILES)	EC50 (read-out: Assay 1 EC50) [nM]	Emax [%]	EC50 (Assay 1 EC50 (nM)) [nM]	Assay 1 Emax (%)
CN1CCCC(Cn2c(CN3CCC(c4cccc(OCc5ccc(Cl)cc5F)n4)CC3)nc3ccc(C(=O)O)cc32)C1 (stereo not drawn) [Example 11A-04, 2-[(4-{6-[(4-chloro-2-fluorobenzyl)oxy]pyridin-2-yl}piperidin-1-yl)methyl]-1-[(1-methylpiperidin-3-yl)methyl]-1H-benzimidazole-6-carboxylic acid]	> 19000	100		
Cn1c(CN2CCC(c3cccc(OCc4cc(F)ccc4F)n3)CC2)nc2ccc(C(=O)O)cc21 [Example 9A-14, 2-[(4-{6-[(2,5-difluorobenzyl)oxy]pyridin-2-yl}piperidin-1-yl)methyl]-1-methyl-1H-benzimidazole-6-carboxylic acid]	1800	93		
Cc1nc(C(C)n2c(CN3CCC(c4cccc(OCc5ccc(Cl)cc5F)n4)CC3)nc3ccc(C(=O)O)cc32)n[nH]1 (stereo not drawn) [Example 11A-67, 2-[(4-{6-[(4-chloro-2-fluorobenzyl)oxy]pyridin-2-yl}piperidin-1-yl)methyl]-1-[1-(5-methyl-1H-1,2,4-triazol-3-yl)ethyl]-1H-benzimidazole-6-carboxylic acid]	9300	100		
COC1CCN(CCn2c(CN3CCC(c4cccc(OCc5ccc(Cl)cc5F)n4)CC3)nc3ccc(C(=O)O)cc32)CC1 [Example 11A-56, 2-[(4-{6-[(4-chloro-2-fluorobenzyl)oxy]pyridin-2-yl}piperidin-1-yl)methyl]-1-[2-(4-methoxypiperidin-1-yl)ethyl]-1H-benzimidazole-6-carboxylic acid]	1100	47		
CN1CCOC(Cn2c(CN3CCC(c4cccc(OCc5ccc(Cl)cc5F)n4)CC3)nc3ccc(C(=O)O)cc32)C1 (stereo not drawn) [Example 11A-63, 2-[(4-{6-[(4-chloro-2-fluorobenzyl)oxy]pyridin-2-yl}piperidin-1-yl)methyl]-1-[(4-methylmorpholin-2-yl)methyl]-1H-benzimidazole-6-carboxylic acid]	2500	71		
COCCn1c(CN2CCC(c3cccc(OCc4ccc(Cl)cc4F)n3)CC2C)nc2ccc(C(=O)O)cc21 (single isomer, unassigned) [Example 13A-02, trans 2-{[4-{6-[(4-Chloro-2-fluorobenzyl)oxy]pyridin-2-yl}-2-methylpiperidin-1-yl]methyl}-1-(2-methoxyethyl)-1H-benzimidazole-6-carboxylic acid]			420	81
Cc1ccccc1COc1cccc(C2CCN(Cc3nc4ccc(C(=O)O)cc4n3C)CC2)n1 [Example 9A-11, 1-methyl-2-[(4-{6-[(2-methylbenzyl)oxy]pyridin-2-yl}piperidin-1-yl)methyl]-1H-benzimidazole-6-carboxylic acid]	1600	83		
COCCn1c(CN2CC[C@@H](c3cccc(OCc4ccc(Cl)cc4F)n3)[C@@H](O)C2)nc2ccc(C(=O)O)cc21 (racemic) [Example 1A-24, rac-2-{[(3R,4S)-4-{6-[(4-chloro-2-fluorobenzyl)oxy]pyridin-2-yl}-3-hydroxypiperidin-1-yl]methyl}-1-(2-methoxyethyl)-1H-benzimidazole-6-carboxylic acid]		84	> 11000	
Cc1n[nH]c(Cn2c(CN3CCC(c4cccc(OCc5ccc(Cl)cc5F)n4)CC3)nc3ccc(C(=O)O)cc32)n1 [Example 11A-59, 2-[(4-{6-[(4-chloro-2-fluorobenzyl)oxy]pyridin-2-yl}piperidin-1-yl)methyl]-1-[(3-methyl-1H-1,2,4-triazol-5-yl)methyl]-1H-benzimidazole-6-carboxylic acid]	1400	97		
CN1CCCCC1Cn1c(CN2CCC(c3cccc(OCc4ccc(Cl)cc4F)n3)CC2)nc2ccc(C(=O)O)cc21 (stereo not drawn) [Example 11A-10, 2-[(4-{6-[(4-chloro-2-fluorobenzyl)oxy]pyridin-2-yl}piperidin-1-yl)methyl]-1-[(1-methylpiperidin-2-yl)methyl]-1H-benzimidazole-6-carboxylic acid]	> 20000			
Cc1n[nH]c(CCn2c(CN3CCC(c4cccc(OCc5ccc(Cl)cc5F)n4)CC3)nc3ccc(C(=O)O)cc32)n1 [Example 11A-66, 2-[(4-{6-[(4-chloro-2-fluorobenzyl)oxy]pyridin-2-yl}piperidin-1-yl)methyl]-1-[2-(3-methyl-1H-1,2,4-triazol-5-yl)ethyl]-1H-benzimidazole-6-carboxylic acid]	4000	91		
N#Cc1ccc(COc2cccc(C3CCN(Cc4nc5ccc(C(=O)O)cc5n4CC4CCOC4)CC3)n2)c(F)c1 (single isomer, unassigned; enantiomer 1) [Example 14A-09, 2-[(4-{6-[(4-cyano-2-fluorobenzyl)oxy]pyridin-2-yl}piperidin-1-yl)methyl]-1-(tetrahydrofuran-3-ylmethyl)-1H-benzimidazole-6-carboxylic acid,enantiomer 1]				73
Cn1c(CN2CCC(c3cccc(OCc4ccccc4)n3)CC2)nc2ccc(C(=O)O)cc21 [Example 9A-01, 2-((4-(6-(Benzyloxy)pyridin-2-yl)piperidin-1-yl)methyl)-1-methyl-1H-benzo[d]imidazole-6-carboxylic acid]	1200	78		

Continued, in another order:

EC50 (read-out: Assay 1 EC50) [nM]	Emax [%]	EC50 (Assay 1 EC50 (nM)) [nM]	Structure (SMILES)	Assay 1 Emax (%)
370	75		O=C(O)c1cnc2nc(CN3CCC(c4cccc(OCc5ccc(Cl)cc5F)n4)CC3)n(CC(F)(F)F)c2c1 [Example 2A-16, 2-[(4-{6-[(4-chloro-2-fluorobenzyl)oxy]pyridin-2-yl}piperidin-1-yl)methyl]-1-(2,2,2-trifluoroethyl)-1H-imidazo[4,5-b]pyridine-6-carboxylic acid]	
390	69		O=C(O)c1ccc2nc(CN3CCC(c4cccc(OCc5ccc(Cl)cc5F)n4)CC3)n(CC3CC(F)(F)C3)c2c1 [Example 11A-51, 2-[(4-{6-[(4-chloro-2-fluorobenzyl)oxy]pyridin-2-yl}piperidin-1-yl)methyl]-1-[(3,3-difluorocyclobutyl)methyl]-1H-benzimidazole-6-carboxylic acid]	
3.4	79		O=C(O)c1ccc2nc(CN3CCC(c4cccc(OCc5ccc(Cl)cc5F)n4)CC3)n(C[C@H]3CCOC3)c2c1 [Example 10A-72, 2-[(4-{6-[(4-chloro-2-fluorobenzyl)oxy]pyridin-2-yl}piperidin-1-yl)methyl]-1-[(3R)-tetrahydrofuran-3-ylmethyl]-1H-benzimidazole-6-carboxylic acid]	
340	74		Cc1nc2nc(CN3CCC(c4cccc(OCc5ccc(Cl)cc5F)n4)CC3)n(C)c2cc1C(=O)O [Example 2A-12, 2-[(4-{6-[(4-chloro-2-fluorobenzyl)oxy]pyridin-2-yl}piperidin-1-yl)methyl]-1,5-dimethyl-1H-imidazo[4,5-b]pyridine-6-carboxylic acid]	
870	82		Cn1c(CN2CCC(c3cccc(OCc4ccccc4F)n3)CC2)nc2ccc(C(=O)O)cc21 [Example 9A-06, 2-[(4-{6-[(2-fluorobenzyl)oxy]pyridin-2-yl}piperidin-1-yl)methyl]-1-methyl-1H-benzimidazole-6-carboxylic acid]	
560	72		COCC1(Cn2c(CN3CCC(c4cccc(OCc5ccc(Cl)cc5F)n4)CC3)nc3ccc(C(=O)O)cc32)CCC1 [Example 11A-74, 2-[(4-{6-[(4-chloro-2-fluorobenzyl)oxy]pyridin-2-yl}piperidin-1-yl)methyl]-1-{[1-(methoxymethyl)cyclobutyl]methyl}-1H-benzimidazole-6-carboxylic acid]	
390	82		Cc1nnc(Cn2c(CN3CCC(c4cccc(OCc5ccc(Cl)cc5F)n4)CC3)nc3ccc(C(=O)O)cc32)o1 [Example 10A-29]	
79	81		Cn1c(CN2CCC(c3cccc(OCc4ccc(C(F)(F)F)cc4F)n3)CC2)nc2ccc(C(=O)O)cc21 [Example 9A-02, 2-{[4-(6-{[2-fluoro-4-(trifluoromethyl)benzyl]oxy}pyridin-2-yl)piperidin-1-yl]methyl}-1-methyl-1H-benzimidazole-6-carboxylic acid]	
140	76		O=C(O)c1ccc2nc(CN3CCC(c4cccc(OCc5ccc(Cl)cc5F)n4)CC3)n(Cc3cnoc3)c2c1 [Example 10A-68]	
87	83		Cn1cc(CCn2c(CN3CCC(c4cccc(OCc5ccc(Cl)cc5F)n4)CC3)nc3ccc(C(=O)O)cc32)cn1 [Example 11A-32, 2-[(4-{6-[(4-chloro-2-fluorobenzyl)oxy]pyridin-2-yl}piperidin-1-yl)methyl]-1-[2-(1-methyl-1H-pyrazol-4-yl)ethyl]-1H-benzimidazole-6-carboxylic acid]	
750	76		COCCn1c(CN2CCN(c3cccc(OCc4ccc(Cl)cc4F)n3)C(C)(C)C2)nc2ccc(C(=O)O)cc21 [Example 1A-12, 2-[(4-{6-[(4-chloro-2-fluorobenzyl)oxy]pyridin-2-yl}-3,3-dimethylpiperazin-1-yl)methyl]-1-(2-methoxyethyl)-1H-benzimidazole-6-carboxylic acid]	
5	65		O=C(O)c1ccc2nc(CN3CCC(c4cccc(OCc5ccc(Cl)cc5F)n4)CC3)n(Cc3ncon3)c2c1 [Example 10A-70]	
210	79		COCCn1c(CN2CCC(c3cccc(OCc4ccc(Cl)cc4F)n3)CC2)nc2ncc(C(=O)O)c(C)c21 [Example 2A-11, 2-[(4-{6-[(4-chloro-2-fluorobenzyl)oxy]pyridin-2-yl}piperidin-1-yl)methyl]-1-(2-methoxyethyl)-7-methyl-1H-imidazo[4,5-b]pyridine-6-carboxylic acid]	
390	72		CCc1nc(Cn2c(CN3CCC(c4cccc(OCc5ccc(Cl)cc5F)n4)CC3)nc3ccc(C(=O)O)cc32)no1 [Example 10A-51]	
190	71		Cc1nnc(CCn2c(CN3CCC(c4cccc(OCc5ccc(Cl)cc5F)n4)CC3)nc3ccc(C(=O)O)cc32)o1 [Example 10A-28]	
